Data as given in the NIST ThermoML archive (doi:10.1016/j.fluid.2015.12.007).

Test: xn = mol fraction of the nth substance listed
Conditions: 101 kPa, Liquid; for speed of sound: Sing-around technique in a fixed-path interferometer; for mass density: Vibrating tube method

CC(O)CO (centres undefined) [1,2-propanediol] + CCCCn1cc[n+](C)c1.F[B-](F)(F)F
Conditions	mass density [kg/m3]	speed of sound [m/s]
293.15 K, x2 = 0.0521	1056.41	1527.9
293.15 K, x2 = 0.1068	1074.4	1532.7
293.15 K, x2 = 0.2089	1101.55	1538.5
293.15 K, x2 = 0.3074	1122.27	1543.9
293.15 K, x2 = 0.4035	1139.05	1549.8
293.15 K, x2 = 0.5031	1153.8	1554.6
293.15 K, x2 = 0.5907	1164.95	1559
293.15 K, x2 = 0.7031	1177.42	1564.6
293.15 K, x2 = 0.8	1187.25	1568.6
293.15 K, x2 = 0.8992	1196.18	1572
298.15 K, x2 = 0.0521	1052.69	1515.3
298.15 K, x2 = 0.1068	1070.64	1520
298.15 K, x2 = 0.2089	1097.72	1526.2
298.15 K, x2 = 0.3074	1118.42	1531.5
298.15 K, x2 = 0.4035	1135.23	1537.5
298.15 K, x2 = 0.5031	1150.01	1542.5
298.15 K, x2 = 0.5907	1161.21	1547
298.15 K, x2 = 0.7031	1173.74	1552.6
298.15 K, x2 = 0.8	1183.62	1556.7
298.15 K, x2 = 0.8992	1192.57	1560.5
303.15 K, x2 = 0.0521	1048.94	1502.2
303.15 K, x2 = 0.1068	1066.85	1507
303.15 K, x2 = 0.2089	1093.89	1513.8
303.15 K, x2 = 0.3074	1114.58	1519.2
303.15 K, x2 = 0.4035	1131.41	1525.3
303.15 K, x2 = 0.5031	1146.23	1530.3
303.15 K, x2 = 0.5907	1157.48	1535
303.15 K, x2 = 0.7031	1170.07	1540.7
303.15 K, x2 = 0.8	1180	1544.9
303.15 K, x2 = 0.8992	1188.99	1549
308.15 K, x2 = 0.0521	1045.16	1488.9
308.15 K, x2 = 0.1068	1063.06	1494
308.15 K, x2 = 0.2089	1090.06	1501.1
308.15 K, x2 = 0.3074	1110.75	1506.8
308.15 K, x2 = 0.4035	1127.62	1513.1
308.15 K, x2 = 0.5031	1142.48	1518.2
308.15 K, x2 = 0.5907	1153.77	1523
308.15 K, x2 = 0.7031	1166.42	1528.9
308.15 K, x2 = 0.8	1176.39	1533.2
308.15 K, x2 = 0.8992	1185.42	1537.5
313.15 K, x2 = 0.0521	1041.36	1475.6
313.15 K, x2 = 0.1068	1059.24	1481.1
313.15 K, x2 = 0.2089	1086.22	1488.5
313.15 K, x2 = 0.3074	1106.92	1494.5
313.15 K, x2 = 0.4035	1123.83	1501
313.15 K, x2 = 0.5031	1138.74	1506.2
313.15 K, x2 = 0.5907	1150.08	1511.1
313.15 K, x2 = 0.7031	1162.79	–
313.15 K, x2 = 0.8	1172.81	1521.7
313.15 K, x2 = 0.8992	1181.86	1526.1
318.15 K, x2 = 0.0521	1037.53	1462.3
318.15 K, x2 = 0.1068	1055.4	1468.1
318.15 K, x2 = 0.2089	1082.38	1476
318.15 K, x2 = 0.3074	1103.1	1482.3
318.15 K, x2 = 0.4035	1120.04	1488.9
318.15 K, x2 = 0.5031	1135.01	1494.3
318.15 K, x2 = 0.5907	1146.4	1499.4
318.15 K, x2 = 0.7031	1159.17	1505.6
318.15 K, x2 = 0.8	1169.23	1510.3
318.15 K, x2 = 0.8992	1178.32	1515

CCCCn1cc[n+](C)c1.COS(=O)(=O)[O-] [1-butyl-3-methylimidazolium methyl sulfate] + CC(O)CO
Conditions	mass density [kg/m3]	speed of sound [m/s]
293.15 K, x1 = 0.0574	1061.11	1541.9
293.15 K, x1 = 0.1155	1081.09	1554.6
293.15 K, x1 = 0.2102	1107.07	1573.6
293.15 K, x1 = 0.3133	1130.01	1591.4
293.15 K, x1 = 0.4151	1148.5	1602.8
293.15 K, x1 = 0.5038	1162.16	1613.5
293.15 K, x1 = 0.6026	1174.98	1626
293.15 K, x1 = 0.6996	1185.85	1636.8
293.15 K, x1 = 0.8095	1196.11	1649.4
293.15 K, x1 = 0.9003	1204.12	1660.2
298.15 K, x1 = 0.0574	1057.45	1528.2
298.15 K, x1 = 0.1155	1077.45	1541.1
298.15 K, x1 = 0.2102	1103.5	1560.2
298.15 K, x1 = 0.3133	1126.47	1578.4
298.15 K, x1 = 0.4151	1145.03	1589.9
298.15 K, x1 = 0.5038	1158.71	1600.8
298.15 K, x1 = 0.6026	1171.59	1613.1
298.15 K, x1 = 0.6996	1182.44	1624.2
298.15 K, x1 = 0.8095	1192.74	1636.8
298.15 K, x1 = 0.9003	1200.82	1647.5
303.15 K, x1 = 0.0574	1053.78	1514.5
303.15 K, x1 = 0.1155	1073.81	1527.5
303.15 K, x1 = 0.2102	1099.9	1546.9
303.15 K, x1 = 0.3133	1122.94	1565.2
303.15 K, x1 = 0.4151	1141.57	1577.1
303.15 K, x1 = 0.5038	1155.27	1588.2
303.15 K, x1 = 0.6026	1168.22	1600.5
303.15 K, x1 = 0.6996	1179.05	1611.8
303.15 K, x1 = 0.8095	1189.38	1624.5
303.15 K, x1 = 0.9003	1197.47	1635
308.15 K, x1 = 0.0574	1050.08	1500.8
308.15 K, x1 = 0.1155	1070.14	1513.9
308.15 K, x1 = 0.2102	1096.3	1533.6
308.15 K, x1 = 0.3133	1119.41	1552.2
308.15 K, x1 = 0.4151	1138.1	1564.4
308.15 K, x1 = 0.5038	1151.85	1575.8
308.15 K, x1 = 0.6026	1164.85	1588.2
308.15 K, x1 = 0.6996	1175.66	1599.6
308.15 K, x1 = 0.8095	1186.03	1612.3
308.15 K, x1 = 0.9003	1194.14	1622.9
313.15 K, x1 = 0.0574	1046.36	1487.1
313.15 K, x1 = 0.1155	1066.46	1500.4
313.15 K, x1 = 0.2102	1092.68	1520.3
313.15 K, x1 = 0.3133	1115.88	1539.2
313.15 K, x1 = 0.4151	1134.64	1551.8
313.15 K, x1 = 0.5038	1148.44	1563.4
313.15 K, x1 = 0.6026	1161.48	1576
313.15 K, x1 = 0.6996	1172.29	1587.6
313.15 K, x1 = 0.8095	1182.71	1600.3
313.15 K, x1 = 0.9003	1190.84	1610.9
318.15 K, x1 = 0.0574	1042.62	1473.6
318.15 K, x1 = 0.1155	1062.78	1487.1
318.15 K, x1 = 0.2102	1089.06	1507.4
318.15 K, x1 = 0.3133	1112.34	1526.4
318.15 K, x1 = 0.4151	1131.18	1539.2
318.15 K, x1 = 0.5038	1145.05	1551.5
318.15 K, x1 = 0.6026	1158.11	1563.8
318.15 K, x1 = 0.6996	1168.92	1576
318.15 K, x1 = 0.8095	1179.39	1588.5
318.15 K, x1 = 0.9003	1187.56	1599
